Source: US20230257480A1, “ENHANCING BLOOD-BRAIN BARRIER DRUG TRANSPORT BY TARGETING ENDOGENOUS REGULATORS” (THE BOARD OF TRUSTEES OF THE LELAND STANFORD JUNIOR …, priority 2019, published 2023)

System: aged brain endothelial cells
Experiment: scRNA-seq of aged brain endothelial cells after pharmacologic ALPL inhibition
Assay type: in vivo, mice
Description: FIG. 21A includes an image and histogram showing holo-transferrin uptake in ALPL+/− cortical vasculature (n=6, paired two-sided t-test). FIG. 21B is an MA plot of differentially expressed genes (FDR<0.05) from aged mice after administration of ALPL inhibitor and vehicle (7,036 capillary cells, n=4 mice pooled per group, MAST with Bonferroni correction). FIG. 21C includes violin plots showing transferrin receptor (Tfrc) expression across vessel segments, following the paradigm in FIG. 21B (1,171 arterial, 7,036 capillary, and 430 venous cells, MAST with Bonferroni correction).
Cell lysis, first-strand synthesis and cDNA synthesis was performed using the Smart-seq-2 protocol as described previouslyl39-141 in 384-well format, with some modifications. Briefly, brain endothelial cells (CD31+/CD45−) were sorted using SH800S (Sony) sorters on the highest purity setting (‘Single cell’). Plasma-647 fluorescence was recorded for each cell and corresponding sorted well. cDNA synthesis was performed using the Smart-seq2 protocol140-142. After cDNA amplification (23 cycles), concentrations were determined via the PicoGreen quantitation assay. Cells passing quality control were selected through custom scripts and cDNA concentrations normalized to ˜0.2 ng/μL using the TPPLabtech Mosquito HTS and Mantis (Formulatrix) robotic platforms. Libraries were prepared and pooled using the Nextera XT kits (Illumina), following the manufacturer's instructions. Libraries were then sequenced on the Nextseq or Novaseq (Illumina) using 2×75 bp paired-end reads and 2×8 bp index reads with a 200-cycle kit (Illumina, 20012861). Samples were sequenced at an average of 1.5M reads per cell. Raw sequencing files were demultiplexed with bcl2fastq, reads were aligned using STAR, and gene counts made using HTSEQ version 0.6.1p1. Downstream analysis was performed as previously described58, and plasma fluorescence of each cell correlated (Spearman) with gene expression and zonation59.
Mice were treated with six doses of ALPL inhibitor (613810, Millipore Sigma; 2,5-Dimethoxy-N-(quinolin-3-yl)benzenesulfonamide, Tissue-Nonspecific Alkaline Phosphatase Inhibitor, MLS-0038949; C17H16N2O4S; CAS #496014-13-2) or ‘Vehicle’ control over three days, injected intraperitoneally twice per day (8.75 mg/kg). ‘Vehicle’ treatments consisted of phosphate-buffered saline (PBS) with a matching concentration of DMSO (less than 4% v/v). After the sixth treatment, mice were injected intravenously with 150 μL of Atto 647N-labeled plasma (as above), human holo-transferrin (T4132, Millipore Sigma, 40 mg/kg), transferrin receptor antibody (BE0175, BioXcell, 20 mg/kg), or 3-kDa dextran-FITC (10 mg/kg, Thermo Fisher). Plasma, human holo-transferrin, and transferrin receptor antibody were infused 20 h before sacrifice, while 3-kDa dextran-FITC was given 2 h before sacrifice, as previously described143. After extensive perfusion, CNS cells were isolated as described above. Cell pellets were additionally incubated in Red Blood Cell Lysis Buffer (Millipore Sigma, R7757) for 2 minutes to ensure high CNS cell purity. Brain endothelial cells were distinguished by CD3 I+/CD45− staining and parenchymal cells by CD31−/CD45− staining. […]

COc1ccc(OC)c(S(=O)(=O)Nc2cnc3ccccc3c2)c1 [ALPL inhibitor, 2,5-Dimethoxy-N-(quinolin-3-yl)benzenesulfonamide]
TFRC expression on the aged BBB (aged BBB, upon ALPL inhibition): strongly upregulated | ferroportin expression on the aged BBB (aged BBB, upon ALPL inhibition): strongly upregulated | transferrin receptor expression increase in capillaries (aged mice, capillary cells, after ALPL inhibition): ~70% | transferrin receptor expression increase in venous cells (aged mice, venous cells, after ALPL inhibition): ~89% | pct, ALPL inh., Fcgrt (receptor gene Fcgrt, ALPL inhibitor-treated group): 0.849 | % increase, Fcgrt (receptor gene Fcgrt, aged BBB, ALPL inhibition vs control): 24.2% | pct, ALPL inh., Lpar6 (receptor gene Lpar6, ALPL inhibitor-treated group): 0.446 | % increase, Lpar6 (receptor gene Lpar6, aged BBB, ALPL inhibition vs control): 37.0% | pct, ALPL inh., Scarb1 (receptor gene Scarb1, ALPL inhibitor-treated group): 0.45 | % increase, Scarb1 (receptor gene Scarb1, aged BBB, ALPL inhibition vs control): 11.1% | pct, ALPL inh., Tfrc (receptor gene Tfrc, ALPL inhibitor-treated group): 0.723 | % increase, Tfrc (receptor gene Tfrc, aged BBB, ALPL inhibition vs control): 70.1% | pct, ALPL inh., Slc6a6 (transporter gene Slc6a6, ALPL inhibitor-treated group): 0.99 | % increase, Slc6a6 (transporter gene Slc6a6, aged BBB, ALPL inhibition vs control): 24.9% | pct, ALPL inh., Slc7a1 (transporter gene Slc7a1, ALPL inhibitor-treated group): 0.72 | % increase, Slc7a1 (transporter gene Slc7a1, aged BBB, ALPL inhibition vs control): 12.2% | pct, ALPL inh., Slc16a2 (transporter gene Slc16a2, ALPL inhibitor-treated group): 0.66 | % increase, Slc16a2 (transporter gene Slc16a2, aged BBB, ALPL inhibition vs control): 16.5% | pct, ALPL inh., Slc16a4 (transporter gene Slc16a4, ALPL inhibitor-treated group): 0.42 | % increase, Slc16a4 (transporter gene Slc16a4, aged BBB, ALPL inhibition vs control): 18.8% | pct, ALPL inh., Slc22a8 (transporter gene Slc22a8, ALPL inhibitor-treated group): 0.71 | % increase, Slc22a8 (transporter gene Slc22a8, aged BBB, ALPL inhibition vs control): 11.0% | pct, ALPL inh., Slc25a1 (transporter gene Slc25a1, ALPL inhibitor-treated group): 0.24 | % increase, Slc25a1 (transporter gene Slc25a1, aged BBB, ALPL inhibition vs control): 10.7% | pct, ALPL inh., Slc26a10 (transporter gene Slc26a10, ALPL inhibitor-treated group): 0.19 | % increase, Slc26a10 (transporter gene Slc26a10, aged BBB, ALPL inhibition vs control): 17.8% | pct, ALPL inh., Slc39a8 (transporter gene Slc39a8, ALPL inhibitor-treated group): 0.34 | % increase, Slc39a8 (transporter gene Slc39a8, aged BBB, ALPL inhibition vs control): 10.9% | pct, ALPL inh., Slc39a10 (transporter gene Slc39a10, ALPL inhibitor-treated group): 0.89 | % increase, Slc39a10 (transporter gene Slc39a10, aged BBB, ALPL inhibition vs control): 12.1% | % increase, Slc40a1 (transporter gene Slc40a1 (ferroportin), aged BBB, ALPL inhibition vs control): 35.0% | pct, ALPL inh., Slc40a1 (transporter gene Slc40a1, ALPL inhibitor-treated group): 0.62 | pct, ALPL inh., Slco1c1 (transporter gene Slco1c1, ALPL inhibitor-treated group): 0.97 | % increase, Slco1c1 (transporter gene Slco1c1, aged BBB, ALPL inhibition vs control): 15.7%
